These are literature values, as cited in PMC11232374, “Safety, tolerability, and pharmacokinetics of HRS9432(A) injection in healthy Chinese subjects: a phase-I randomized, double-blind, dose escalation, placebo-controlled study” (Antimicrobial Agents and Chemotherapy, 2024).

For the data set the following is noted: after a single intravenous dose. An excerpt: Echinocandin-class antifungal drugs currently available on the market include caspofungin, micafungin, and anidulafungin. The chemical structures of these drugs contribute to their relatively short half-life, necessitating daily administration in clinical practice ([3]). Rezafungin is a long-acting echinocandin antifungal drug, based on the structure of anidulafungin to enhance metabolic stability. […] The results of its Pha ...

Rezafungin: the elimination half-life was 150 h.
